Tests used:
Thermicanus [1] = test: Microbe control test in recycled fiber pulp (white water + recycled packaging board), 24 h contact time; format: cell-based; settings: after 24 h at +50° C.; NGS sequencing and total bacterial qPCR; control 3.2*10^7; performic acid 14 mg/l, monochloramine 15 mg/l, mixture in total 15 mg/l, mixture in total 8 mg/l + zinc 7 mg/l
Description: White water from a liner machine using recycled fiber was taken and dry, brown, recycled packaging board was homogenized with the water so that the final consistency of fibers was 2.0%. The pulp was divided into portions and biocides and enzyme inhibitor (zinc) were added into the bottles according to the Table 2. pH of the pulp at the beginning of the test was 7.75 and ORP +175 mV. After this the bottles were incubated at +50° C. for 24 hours. At 24 h pH and ORP were measured and samples for DNA analysis were collected. The amount of Thermicanus was quantified as described in examples 1 and 2.
Biocide and enzyme inhibitor treated samples had clearly higher pH and ORP than control sample. Said biocide and/or enzyme inhibitor treatments also decrease the amount of bacteria belonging to the family Thermicanaceae or genus Thermicanus: The control sample contained 3.2*10^7 Thermicanus cells/ml, and the treated samples>90% less, 1.2-2.2*10^6 cells/ml. Thus, in the treated samples both the physical conditions were better and the amount of Thermicanus was lower than in the control sample.

Thermicanus [2] = test: Biocide trial on a paper machine using recycled fiber; Thermicanus quantified with specific qPCR
Description: The best primer sequences for a qPCR assay specific for Thermicanus were 5′-[…]-3′ (SEQ ID NO: 2) and 5′-[…]-3′ (SEQ ID NO: 3). Allowing maximum 2 mismatches, these primers detect no 16S rRNA gene of other bacterial genera. The length of the PCR product is 236 bp for Thermicanus aegyptius, the only Thermicanus species described thus far. Specific amplification (one peak in qPCR melt curve analysis) was produced from Thermicanus genomic DNA at annealing temperatures 59-63° C. in qPCR master mix with 2.2 mM Mg^2+ (50 mM salt) and SYBR Green.
Besides in silico verifications, the validity of the Thermicanus qPCR assay with the novel primers was verified with 16 board process DNA samples from RCF pulp and white water (FIG. 1). Samples were selected based on sequencing results to be taxonomically diverse, include wide range of Thermicanus, and include communities with close relatives of Thermicanus including Geobacillus (Bacillaceae). SYBR Green qPCR detection chemistry was used with hot-start qPCR mastermix on BioRad CFX96 cycler or thermal cycler, using annealing temperature of 61° C. for stringent hybridization. The Pearson correlation between the NGS and qPCR-derived Thermicanus abundance was 0.993, when total bacteria were quantified based on genomic DNA concentration (FIG. 1A), and 0.997, when total bacteria were quantified based on general bacterial qPCR (FIG. 1B). These very high correlations verify the specificity and validity of the novel Thermicanus qPCR primers for the quantification of Thermicanus in board process samples.
A biocide trial on a paper machine using recycled fiber was ran with monochloramine (MCA). Samples from stock storage and cloudy white water were taken 7 months and 1 day before starting the trial and 3 weeks after starting the MCA trial. The amount of Thermicanus was quantified with Thermicanaceae-specific qPCR as described in Example 3. MCA trial decreased Thermicanus densities in stock storage and white water by ≥99%.

## O=COO [Performic acid]
Thermicanus [1]
  Thermicanus, cells/ml: 2.0*10^6 cells/ml

## NCl [Monochloramine, monochloramine]
Thermicanus [2]; cloudy white water, 3 weeks after start of MCA trial, before trial 2.7*10^8 (7 months) and 2.1*10^8 (1 day)
  Thermicanus, white water, cells/ml: 7.5*10^5 cells/ml
Thermicanus [2]; stock storage and white water, 3 weeks after start of MCA trial versus before trial
  decrease of Thermicanus densities: ≥ 99%
Thermicanus [2]; stock storage, 3 weeks after start of MCA trial, before trial 5.8*10^8 (7 months) and 3.9*10^8 (1 day)
  Thermicanus, stock storage, cells/ml: 3.8*10^6 cells/ml
Thermicanus [1]
  Thermicanus, cells/ml: 1.2*10^6 cells/ml

Source: patent US20260035753A1, “METHODS OF DETERMINING BACTERIA AND MANUFACTURING A FIBROUS WEB AND TOOLS AND USES RELATED THERETO” (KEMIRA OYJ, priority 2020, published 2026)
